Assay [1] relates to Stat5. Put plainly: Stat5 phosphorylation in CWR22Rv1 cells (IP/immunoblot). Type of assay: cell-based, human. Conditions: 4 days. As to the method:
In order to evaluate whether the phosphate group of IST5 is critical for IST5 activity in cell-based assays, we compared the potency of IST5 (Figure 4A) to that of IST5-M (IST5 without the phosphate group) (Figure 4B) in inhibiting phosphorylation of Stat5 in PC and CML cells. CML (K562) cells and PC (CWR22Rv1) cells were cultured for 4 days with increasing concentrations of IST5 and IST5-M (Figure 4C,D). […] Collectively, these finding indicate that IST5 and IST5-M have similar efficacies in inhibiting phosphorylation of Stat5 in both CML and PC cells.
Figure 4 IST5 and the IST5-derivative lacking the phosphate group (IST5-M), both, inhibit Stat5 phosphorylation in CML and prostate cancer cell line with high efficacy. (A), chemical structure of IST5-002 (IST5). (B), chemical structure of IST5-M (IST5 without the phosphate group. (C), IST5 and IST5-M both inhibit Stat5 phosphorylation in CML cells (K562) with high efficacy. K562 cells were treated with IST5 and IST5-M for 4 days at the concentrations indicated. Whole cell lysates (WCL) were immunoblotted with anti-pYStat5 mAb, anti-Stat5 mAb and anti-actin mAb as loading control. (D), IST5 and IST5-M, both, decrease Stat5 phosphorylation in PC cells (CWR22Rv1). CWR22Rv1 cells were treated with increasing concentrations of IST5 and IST5-M for 4 days. Stat5 was immunoprecipitated (IP) followed by immunoblotting (WB) with anti-pYStat5 mAb and anti-Stat5 mAb. Whole cell lysates (WCL) were immunoblotted with anti-actin mAb as loading control.
Cell pellets were solubilized in the lysis buffer (10 mM Tris-HCl (pH 7.6), 5 mM EDTA, 50 mM sodium chloride, 30 mM sodium pyrophosphate, 50 mM sodium fluoride, 1 mM sodium orthovanadate, 1% Triton X-100, 1 mM phenylmethylsulfonyl fluoride, 5 µg/mL aprotinin, 1 µg/mL pepstatin A and 2 µg/mL leupeptin), and protein concentrations of clarified cell lysates were determined by a simplified Bradford method (Bio-Rad, Hercules, CA, USA). The whole cell lysates were immunoprecipitated with polyclonal antibodies (Table S1) followed by incubation with protein A-Sepharose beads (GE Healthcare, Chicago, IL, USA). The cell lysates and immunoprecipitated proteins were separated on 4–12% SDS-PAGE (Life Technologies, Brown Deer, WI, USA) and transferred electrophoretically to polyvinylidene fluoride membrane (Millipore). For immunoblotting, blocking buffer was tris-buffered saline and tween 20 (TBST, 0.15 M NaCl; 0.1% Tween 20; 50 mM Tris, pH 8.0) with 3% bovine serum albumin (BSA). The immunoreaction with the specific antibodies (Table S1) was detected by horseradish peroxidase-conjugated secondary antibodies followed by enhanced chemiluminescence (GE Healthcare).
On the technique in general: In western blotting, separated proteins are transferred to a membrane and probed.

The test system of assay [2] is Stat5. Put plainly: Stat5 phosphorylation in cancer cells (summary). Type of assay: cell-based, human. The settings on record: read-out: IC50, inhibition of Stat5 phosphorylation, range over cell lines. The text has this:
Down-regulation of Stat5 phosphorylation by IST5 can theoretically be caused by IST5 blocking Stat5 monomer docking to the activated receptor-Jak2 complex (Figure 1) and/or by IST5 inhibition of Jak2 kinase activity. […] To further investigate whether IST5 is able to disrupt dimerization of Stat5 molecules, we employed two separate cell-based assays. […] Because both phosphorylation and dimerization of Stat5 were inhibited at similar concentrations of IST5, it is difficult to determine whether disruption of Stat5 dimerization by IST5 is caused by suppression of Stat5 phosphorylation or a direct effect of IST5 in hindering Stat5 dimer-formation or both events occurring at the same time in the cell. However, it is known that heteromolecular interactions are easier to disrupt than interactions between two Stat5 monomers implying that the primary mechanism of action of IST5 may be suppression of Stat5 docking to the receptor-kinase complex. It is important to note that bypassing tyrosine kinases responsible for Stat5 phosphorylation by utilizing direct Stat5 inhibitor would be advantageous for therapy development for Stat5-regulated cancers because targeting Stat5 directly is likely to cause less off-target side effects than targeting kinases or cell surface receptors.

`O=P(O)(O)OCC1OC(n2cnc3c(NCc4ccccc4)ncnc32)C(O)C1O` (stereo not drawn) [IST5]: the “inhibition of Stat5 phosphorylation” value in the assay with Stat5 [1] (2 µM, CWR22Rv1 cells) was 60–75%. Besides, the IC50 (commonly the point on the concentration scale where inhibition reaches its midpoint) was around 1300 nM with Stat5 [1] (read-out: IC50, inhibition of Stat5 phosphorylation, CWR22Rv1 PC cells) and 1100 to 1300 nM with Stat5 [2].

For the origin of these results see publication PMC7724566, “Prospects for Clinical Development of Stat5 Inhibitor IST5-002: High Transcriptomic Specificity in Prostate Cancer and Low Toxicity In Vivo” (Cancers, 2020).
